According to patent publication US5011824A, “Rectal motilin preparation” (Kyowa Hakko Kogyo Co., Ltd., priority 1988, dated 1991):

Experiment: Intravenous safety of motilin in rats
Type: in vivo
Settings: 10 mg/kg intravenously
From the text: The preparation usually contains a therapeutically effective quantity, suitably about 0.05 to about 5% by weight, preferably about 0.1 to about 2% by weight, of motilin.

Substance: motilin
- mortality: did not die
